Data from US9642874B2, “Compositions of selenoorganic compounds and methods of use thereof” (Alltech, Inc., priority 2014, dated 2017).

Columns and labels:
Foxo3 = assay: Western blot of Foxo3 / pFoxo3T32 in AML-12 cells; type: cell-based, mouse; conditions: individual compound, 150 ppb, serum-containing media, 6 hours and 24 hours
Description: (§1) For the studies of protein expression, AML-12 cells were amplified in ITS, Dex and FBS-containing DMEM/F12 media, and cultured on 6-well (3.33×10^5 cells/well) plates in 10% FBS ITS-free DMEM/F12 media with or without Dex overnight. These cells were treated with control (water) or various compounds in either serum containing (10% FBS ITS-free DMEM/F12 media supplemented with Dex) or serum-free (ITS/Dex-free DMEM/F12 media) for 6 hours and 24 hours. In addition, human neuroblast IMR-32 cells were cultured in 10% FBS EMEM media and then treated with control (water), selenium compounds and their sulfur analogs in the same serum-containing media for 6 hours and 24 hours.
(§2) AML-12 liver cells or IMR-32 neuronal cells were seeded on 6-well plates, and then treated with vehicle and various compounds for 6 hours and 24 hours, as described herein. […] Protein levels in the supernatant of these cell lysates were determined using the Pierce Micro-BCA protein assay kit (Thermo Scientific-Piece Biotechnology, Rockford, Ill.) according to the manufacturer's protocol. […]
(§3) All primary antibodies except Actb (Li-COR, Lincoln, Nebr.), Elf2bε and pElf2bε (Abcam, Cambridge, Mass.) were purchased from Cell Signaling Inc. Positive signals on the membrane blots were detected using the Amersham's enhanced chemiluminescence Western Blotting Prime Detection reagents (GE healthcare Lifescience, Pittsburgh, Pa.). Images of luminescence signals on the membrane blots were captured using the LI-COR Odyssey Fc Image system (Lincoln, Nebr.). […] Protein band densities in the Western blots were determined using the Li-COR Image studio software or NIH ImageJ software and then normalized by Actb level in each sample. […]
(§4) To determine if the combination of Compounds CDE can regulate FOXO phosphorylation in the liver, AML-12 cells were treated with control, and 150 ppb of selenium Compounds CDE, and their sulfur analogs, 150 ppb of Compounds HIJ, in serum- and Dex-containing media but without ITS for 6 hours. […] Quantitative data of protein expression in Western blots are presented as mean±SEM of 3 samples. […]

Foxo4 = assay: Western blot of Foxo4 / pFoxo4T28 in AML-12 cells; type: cell-based, mouse; conditions: individual compound, 150 ppb, serum-containing media, 6 hours and 24 hours
Description: as §1, §2, §3, §4

C[Se]C[C@H]1O[C@@H](n2cnc3c(N)ncnc32)C(O)C1O (stereo in doubt) [Compound C, 5′-Methylselenoadenosine]
pFoxo3T32 protein levels (Foxo3): No change | pFoxo4T28 protein levels (Foxo4): No change

Nc1ncnc2c1ncn2[C@@H]1O[C@H](C[Se]CC[C@@H](N)C(=O)O)C(O)C1O (stereo partly drawn) [Compound D, 5′-Selenoadenosyl homocysteine]
pFoxo3T32 protein levels (Foxo3): No change | pFoxo4T28 protein levels (Foxo4): No change

C[Se]C[C@H](NC(=O)CC[C@H](N)C(=O)O)C(=O)O [Compound E, γ-L-glutamyl-Se-methyl-L-selenocysteine]
pFoxo3T32 protein levels (Foxo3): No change | pFoxo4T28 protein levels (Foxo4): No change
